Data taken from ChEMBL document CHEMBL3286183, “Minor diterpene glycosides from the leaves of Stevia rebaudiana” (J Nat Prod, 2014).
The source made the active and inactive calls.

Tests used:
Type in all cases: functional, organism-based
Cryptococcus neoformans = experiment: Antimicrobial activity against Cryptococcus neoformans ATCC 90113
Aspergillus fumigatus = experiment: Antimicrobial activity against Aspergillus fumigatus ATCC 90906
Staphylococcus aureus = experiment: Antimicrobial activity against methicillin-resistant Staphylococcus aureus ATCC 43300
Escherichia coli = experiment: Antimicrobial activity against Escherichia coli ATCC 35218
Pseudomonas aeruginosa = experiment: Antimicrobial activity against Pseudomonas aeruginosa ATCC 27853
[1] = system: Mycobacterium intracellulare; experiment: Antimicrobial activity against Mycobacterium intracellulare ATCC 23068
Candida albicans = experiment: Antimicrobial activity against Candida albicans ATCC 90028
Plasmodium falciparum [2] = experiment: Antimalarial activity against chloroquine-sensitive Plasmodium falciparum D6
Plasmodium falciparum [3] = experiment: Antimalarial activity against chloroquine-resistant Plasmodium falciparum W2

Measured: Activity

C=C1C[C@@]23CC[C@H]4[C@@](C)(CCC[C@@]4(C)C(=O)O[C@@H]4O[C@H](CO)[C@@H](O)[C@H](O)[C@H]4O)[C@@H]2CC[C@]1(O[C@@H]1O[C@H](CO)[C@@H](O)[C@H](O)[C@H]1O[C@@H]1O[C@H](CO)[C@@H](O)[C@H](O[C@@H]2O[C@H](CO)[C@@H](O)[C@H](O)[C@H]2O)[C@H]1O)C3
not listed: Plasmodium falciparum [2] | Plasmodium falciparum [3]
inactive: all other assays above

C=C1C[C@@]23CC[C@H]4[C@@](C)(CCC[C@@]4(C)C(=O)O[C@@H]4O[C@H](CO)[C@@H](O)[C@H](O)[C@H]4O)[C@@H]2CC[C@]1(O[C@@H]1O[C@H](C)[C@@H](O)[C@H](O)[C@@H]1O[C@@H]1O[C@H](CO)[C@@H](O)[C@H](O[C@@H]2O[C@H](CO)[C@@H](O)[C@H](O)[C@H]2O)[C@H]1O)C3
not listed: Plasmodium falciparum [2] | Plasmodium falciparum [3]
inactive: all other assays above

C=C1C[C@@]23CC[C@H]4[C@@](C)(CCC[C@@]4(C)C(=O)O[C@@H]4O[C@H](CO)[C@@H](O)[C@H](O)[C@H]4O[C@@H]4O[C@H](CO)[C@@H](O)[C@H](O)[C@H]4O)[C@@H]2CC[C@]1(O[C@@H]1O[C@H](CO)[C@@H](O)[C@H](O)[C@H]1O)C3
inactive: all assays above

C=C1C[C@@]23CC[C@H]4[C@@](C)(CCC[C@@]4(C)C(=O)O[C@@H]4O[C@H](CO)[C@@H](O)[C@H](O)[C@H]4O)[C@@H]2CC[C@]1(O[C@@H]1O[C@H](CO)[C@@H](O)[C@H](O)[C@H]1O[C@@H]1O[C@H](CO)[C@@H](O)[C@H](O)[C@H]1O)C3
inactive: all assays above

C=C1C[C@@]23CC[C@H]4[C@@](C)(CCC[C@@]4(C)C(=O)O[C@@H]4O[C@H](CO)[C@@H](O)[C@H](O)[C@H]4O)[C@@H]2CC[C@]1(O[C@@H]1O[C@H](CO)[C@@H](O)[C@H](O[C@@H]2OC[C@@H](O)[C@H](O)[C@H]2O)[C@H]1O[C@@H]1O[C@H](CO)[C@@H](O)[C@H](O)[C@H]1O)C3
not listed: Plasmodium falciparum [2] | Plasmodium falciparum [3]
inactive: all other assays above

C=C1C[C@@]23CC[C@H]4[C@@](C)(CCC[C@@]4(C)C(=O)O[C@@H]4O[C@H](CO)[C@@H](O)[C@H](O)[C@H]4O[C@@H]4O[C@H](CO)[C@@H](O)[C@H](O)[C@H]4O)[C@@H]2CC[C@]1(O[C@@H]1O[C@H](CO)[C@@H](O)[C@H](O[C@@H]2O[C@H](CO)[C@@H](O)[C@H](O)[C@H]2O)[C@H]1O[C@@H]1O[C@H](CO)[C@@H](O)[C@H](O)[C@H]1O)C3
not listed: Plasmodium falciparum [2] | Plasmodium falciparum [3]
inactive: all other assays above

C=C1C[C@@]23CC[C@H]4[C@@](C)(CCC[C@@]4(C)C(=O)O[C@@H]4O[C@H](CO)[C@@H](O)[C@H](O)[C@H]4O)[C@@H]2CC[C@]1(O[C@@H]1O[C@H](C)[C@@H](O)[C@H](O)[C@@H]1O[C@@H]1O[C@H](CO)[C@@H](O)[C@H](O)[C@H]1O)C3
not listed: Plasmodium falciparum [2] | Plasmodium falciparum [3]
inactive: all other assays above

C=C1C[C@@]23CC[C@H]4[C@@](C)(CCC[C@@]4(C)C(=O)O)[C@@H]2CC[C@]1(O[C@@H]1O[C@@H](CO)[C@@H](O[C@@H]2O[C@@H](CO)[C@@H](O)[C@H](O)[C@@H]2O)[C@H](O)[C@@H]1O[C@@H]1O[C@@H](CO)[C@@H](O)[C@H](O)[C@@H]1O)C3
not listed: Plasmodium falciparum [2] | Plasmodium falciparum [3]
inactive: all other assays above
